Where two headings read alike, the source gives them in different places.
Columns and labels:
mdx mice = assay: Wire hang test in mdx mice; type: in vivo; details: dantrolene 10 mg/kg/day with oligo AON23 10 mg/kg/week versus AON23 10 mg/kg/week alone, p=0.022
[1] = humans, long term administration; cited from earlier work
[2] = target: T1, cystine/glutamate antiporter SLC7A11 (xCT) (Homo sapiens, UniProt Q9UPY5); assay: Glutamate secretion with sulfasalazine inhibition of the transporter; type: cell-based; details: K562 cells; FIG. S7A-E
T1 construct: endogenous in cells; host or cells: K562 (probable)
T1 sequence (Q9UPY5 1-501): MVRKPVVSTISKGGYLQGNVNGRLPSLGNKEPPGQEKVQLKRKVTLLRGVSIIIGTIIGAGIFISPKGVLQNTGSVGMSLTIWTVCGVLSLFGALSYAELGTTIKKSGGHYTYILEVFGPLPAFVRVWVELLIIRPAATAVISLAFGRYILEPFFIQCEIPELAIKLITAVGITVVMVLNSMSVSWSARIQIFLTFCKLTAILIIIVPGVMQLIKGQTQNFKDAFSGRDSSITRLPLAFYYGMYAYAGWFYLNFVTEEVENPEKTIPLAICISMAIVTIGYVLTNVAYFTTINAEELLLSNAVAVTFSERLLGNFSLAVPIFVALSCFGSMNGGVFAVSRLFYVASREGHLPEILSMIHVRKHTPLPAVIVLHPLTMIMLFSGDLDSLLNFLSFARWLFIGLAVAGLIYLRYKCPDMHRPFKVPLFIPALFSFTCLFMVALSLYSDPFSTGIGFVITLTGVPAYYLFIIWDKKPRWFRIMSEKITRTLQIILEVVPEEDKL
T1 sequence (P08195 1-529 partner): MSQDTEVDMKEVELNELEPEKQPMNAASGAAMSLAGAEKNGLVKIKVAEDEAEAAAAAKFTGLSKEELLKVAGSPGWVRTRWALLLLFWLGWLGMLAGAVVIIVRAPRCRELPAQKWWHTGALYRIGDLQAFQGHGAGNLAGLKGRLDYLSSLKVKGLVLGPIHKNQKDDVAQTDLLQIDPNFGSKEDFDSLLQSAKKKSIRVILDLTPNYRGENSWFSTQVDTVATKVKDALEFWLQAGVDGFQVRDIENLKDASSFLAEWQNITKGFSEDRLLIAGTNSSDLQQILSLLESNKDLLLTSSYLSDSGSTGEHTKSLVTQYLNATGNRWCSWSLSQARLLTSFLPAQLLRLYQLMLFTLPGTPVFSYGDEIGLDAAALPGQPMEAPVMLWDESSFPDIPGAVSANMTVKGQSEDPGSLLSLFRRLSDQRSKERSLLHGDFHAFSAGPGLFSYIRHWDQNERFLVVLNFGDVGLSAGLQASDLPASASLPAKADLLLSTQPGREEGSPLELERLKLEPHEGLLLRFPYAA
Protocol: Glutamate levels were determined using a commercially available AMPLEX kit (Life Technologies). LUC7L2WT, LUC7L2Rescue (LUC7L2KO cells were a LUC7L2 cDNA was stably expressed), LUC7L2KO and ASO treated K562 or HAP1 cells were grown for 24 h in fresh culture media and counted. Cells were then washed with PBS, the media was replaced and the cells were incubated for another 3 h. Medias were then collected and centrifuged at 2,000 g for 3 min, and glutamate concentrations were determined from the supernatant.

K562 cells = assay: Maximal respiration with sulfasalazine inhibition of the transporter; type: cell-based, human; details: FIG. S7A-E
Protocol: 1.25×10^5 K562 cells were plated on a Seahorse plate in Seahorse XF DMEM media (Agilent) containing 25 mM glucose and 4 mM glutamine (ThermoFisher Scientific). Oxygen consumption and extracellular acidification rates were simultaneously recorded by a Seahorse XFe96 Analyzer (Agilent) using the mito stress test protocol, in which cells were sequentially perturbed by […] oligomycin, 1 μM CCCP and […] antimycin (Sigma). Data were analyzed using the Seahorse Wave Desktop Software (Agilent). Data were not corrected for carbonic acid derived from respiratory CO2. For seahorse in HeLa and HAP1 cells, 5×104 and 1×10^5 cells were plated in a 96-well seahorse plate the day before the experiment (respectively). Cells were trypsinized after the experiment and recounted and the data was normalized to cell number.

PFKM = target: T2, PFKM (Homo sapiens, UniProt P08237); details: PFKM / PFK inhibition, cited from earlier work
T2 sequence (P08237 2-780 limits assumed): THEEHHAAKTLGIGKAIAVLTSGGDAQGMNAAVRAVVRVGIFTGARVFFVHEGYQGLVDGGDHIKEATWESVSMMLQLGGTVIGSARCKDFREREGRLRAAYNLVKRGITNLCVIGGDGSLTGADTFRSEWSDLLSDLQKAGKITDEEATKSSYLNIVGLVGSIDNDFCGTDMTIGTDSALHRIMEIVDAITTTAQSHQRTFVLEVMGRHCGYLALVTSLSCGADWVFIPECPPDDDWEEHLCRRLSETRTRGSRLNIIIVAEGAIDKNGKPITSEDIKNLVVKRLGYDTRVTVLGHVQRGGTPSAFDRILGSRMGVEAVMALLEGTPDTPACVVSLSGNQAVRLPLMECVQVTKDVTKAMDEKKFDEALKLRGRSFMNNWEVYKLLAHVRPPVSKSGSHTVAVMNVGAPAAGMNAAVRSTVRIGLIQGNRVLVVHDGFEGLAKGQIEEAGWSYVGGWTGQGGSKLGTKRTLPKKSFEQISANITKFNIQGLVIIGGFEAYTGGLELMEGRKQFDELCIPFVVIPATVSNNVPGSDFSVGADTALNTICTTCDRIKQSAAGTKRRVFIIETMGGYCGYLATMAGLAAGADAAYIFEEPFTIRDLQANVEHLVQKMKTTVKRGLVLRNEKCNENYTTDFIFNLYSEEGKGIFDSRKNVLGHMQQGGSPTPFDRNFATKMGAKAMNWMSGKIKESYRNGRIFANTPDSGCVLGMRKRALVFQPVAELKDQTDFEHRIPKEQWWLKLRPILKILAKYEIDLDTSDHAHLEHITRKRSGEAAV

O=C1CN(/N=C/c2ccc(-c3ccc([N+](=O)[O-])cc3)o2)C(O)=N1 [Dantrolene]
functional benefit in wire hang test (mdx mice): functional benefit | dose shown to be safe [1]: up to 8 mg/kg/day

O=C(O)c1cc(/N=N/c2ccc(S(=O)(=O)Nc3ccccn3)cc2)ccc1O [sulfasalazine (SAS), sulfasalazine]
glutamate secretion [2]: prevented glutamate secretion | maximal respiration (K562 cells): promoted maximal respiration

tryptolinamide [tryptonilamide]
shift of energy metabolism from glycolysis to OXPHOS (PFKM): glycolysis to OXPHOS shift | shift of energy metabolism from glycolysis to OXPHOS (PFKM; listed as tryptolinamide): strong effect
